Laboratory results published in US20100311674A1, “PHARMACEUTICAL COMPOSITIONS WITH A MECHANISM OF MULTI-TARGET RECEPTOR RETROACTION FOR TREATING DEPRESSION” (Yu-Fen Chi, priority 2007, published 2010).

Tests used:
[1] = system: rat olfactory bulb lesion model; experiment: Step through test (passive avoidance) of the rat olfactory bulb lesion model (Experiment 7); assay type: in vivo; conditions: 2 mg/kg/d into the stomach, 24 days
Experimental: Olfactory bulb lesion model: Health Wistar male rats, secondary, 330±20 g of body weight, are purchased from Beijing Vital River Experimental Animal Technology Ltd. Co. (The quality certificate number: SCXK (JING) 2002-2003).
The above pharmaceuticals are prepared with 0.5% of sodium carboxymethylcellulose (CMC-Na) for feeding into the stomach. Benzylpenicillin sodium for injection is the product of North China Pharmaceutical Huasheng Co. Ltd. (Lot: S0511204), and norepinephrine (NE) and 5-hydrotryptamine (5-HT) standards are the products of Sigma Co. Other reagents are all marketed.
7.4.1 Group division and administration of drug: The rats are grouped randomly into 6 groups. 1. […]
7.5.2 Passive avoidance experiment (Step-through test): The step through box is configured by the light chamber and the dark chamber, and a channel is linked between the bright chamber and the dark chamber for mouse entrance and exit. […] The time that the rat enters into for the first time is recorded (electric-shocking latent period), and the time thereof is the learning record. […]
7.6 Statistic calculation: The experimental data are represented as X+SD, and the experimental result is calculated as ANOVA by SPSS 11.5 statistic software.

[2] = system: ICR mice; experiment: Mouse tail-hanging experiment (Experiment 9); assay type: in vivo
Experimental: 9.1 Experiment pharmaceuticals: The pharmaceutical of Embodiment 5 is provided by Beijing Wonner Biotech. […] Above-mentioned pharmaceuticals are prepared with physiological saline for feeding into the stomach. 9.2 Experimental animals: ICR mice, male, 20.0±1 g of body weight, secondary, are provided by the Experimental Animal Science Department of Capital Medical University, Beijing. The quality certificate number of mice is SOCK (DING) 2006-2008. […] The pharmaceuticals are fed into mouse's stomach once every day. After 1 hour of the last administration of drug on the eighth day, the mouse's tail (1 cm to the tail end) is taped on the horizontal support in an opened box, and the mouse represents the reversed hung status. The mouse head is away from the bottom of the opened box for about 10 cm, and the mouse is hung up for 6 minutes. The time of non-movement of the mouse for the last 5 minutes is recorded. 9.5 Statistic calculation: The experimental data are represented as X±SD, and the experimental result is calculated as one-way ANOVA by SPSS 11.5 statistic software.

SMILES: Fc1ccc([C@@H]2CCNC[C@H]2COc2ccc3c(c2)OCO3)cc1 [Paroxetine]
- Latent period of the 1st day ([1]; learning record): 181.87 ± 90.54 s
- Latent period of the 2nd day ([1]; memory record): 265.00 ± 65.39 s
- Time of non-movement ([2]; 3 mg/kg/d into the stomach, 1 h after last dose on the eighth day, last 5 of 6 min): 53.27 ± 20.02 s
- Effect on accumulative time of non-movement, tail-hanging (in words) ([2]; high, middle and low doses of Embodiment 5, Paroxetine): obviously decrease the accumulative time of non-movement
